Assay results: patent US7794965B2, “Method of identifying modulators of PP2A methylase” (Signum Biosciences, Inc., priority 2002, dated 2010)
Read-outs that look alike come from different tables or passages of the source.

Legend:
cultured human neurons = conditions: Merrick, 1997; cited from earlier work
[1] = molecular target: PP2A phosphatase activity (Homo sapiens, UniProt P67775); conditions: cited from earlier work
methylation of PP2A = methylation of PP2A (Homo sapiens, UniProt P67775); conditions: cited from earlier work
Chain of methylation of PP2A (P67775 whole entry): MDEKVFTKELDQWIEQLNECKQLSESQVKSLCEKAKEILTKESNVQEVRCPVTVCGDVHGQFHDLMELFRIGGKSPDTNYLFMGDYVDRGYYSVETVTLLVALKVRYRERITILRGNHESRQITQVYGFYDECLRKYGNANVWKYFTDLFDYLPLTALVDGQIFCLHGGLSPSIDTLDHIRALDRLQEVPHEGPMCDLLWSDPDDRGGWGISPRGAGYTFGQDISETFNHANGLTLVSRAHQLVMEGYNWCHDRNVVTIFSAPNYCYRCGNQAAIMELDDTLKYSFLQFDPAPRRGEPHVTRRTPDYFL

[2] = tested on: PP2A methylation in SH-SY5Y neuroblastoma cells; assay: PP2A methylation in cultured SH-SY5Y cells, western blotting with antibodies 6A3 (total) and 4D9 (methylated); assay type: cell-based; conditions: homocysteine 0, 25, 50, 100, and 200 mM, three hours
Experimental: SH-SY5Y cells were propagated in a 1:1 mixture of Eagle's Minimum Essential Medium and Ham's F12 medium supplemented with 10% Fetal Bovine Serum, Penicillin (100 units/ml)/Streptomycin ([…]) and 2 mM L-Glutamine. The flasks were incubated at 37° C. (5% CO2). Media was changed every 4-6 days until the cells were confluent. On confluency, cells were treated with 25-200 mM homocysteine for 3 hours. […] Each membrane was blocked for 1 hr in 5% milk, followed by an hour incubation in antibodies, 6A3 (1:50) and 4D9 (1:25) which recognize total and methylated PP2A, respectively.
Inhibition of PP2A methylation by homocysteine was determined in cultured cells. Total PP2A and methylated PP2A was determined by western blotting in SH-SY5Y neuroblastoma cells. Homocysteine was added to confluent SH-SY5Y cells to concentrations of […]. Three hours after adding homocysteine the cells were harvested into cold PBS, mixed with SDS sample buffer, and then analyzed by SDS-PAGE and western blotting. To determine total PP2A, the blots were probed with monoclonal antibody 6A3, which recognizes total PP2A. To determine methylated PP2A the blots were probed with monoclonal antibody 4D9, which recognizes methylated but not unmethylated PP2A.

tau = conditions: for CP13 tau phosphorylation, ratio methionine-enriched / not enriched / PHF1 tau phosphorylation, ratio methionine-enriched / not enriched / TG5 total tau, ratio methionine-enriched / not enriched: B6, B12
Text: (§1) Male C57BL/J6 mice were obtained from the Jackson Laboratories (Bar Harbor, Me.) at 4 weeks of age. Mice were fed on a vitamin sufficient or a vitamin deficient diet for 9 weeks. All of the vitamin-sufficient diets contained folate, vitamin B6, and vitamin B12. All of the vitamin deficient diets lacked these vitamins. […] Another group was fed a vitamin deficient diet that contained basal levels of methionine (Harlan Teklad TD00428). The same was true for mice on the vitamin-sufficient diet. One group was fed a diet enriched for methionine (Harlan Teklad TD98002) and another was fed standard rodent chow 5001 c (Lab Diets). The mice were allowed free access to both food and water.
Mice brains were homogenized in 10 times volume/weight buffer containing:
62.5 mM Tris-HCl, pH 6.8, 10% (w/v) glycerol, 5% (v/v) [3-mercaptoethanol, 2.3% (w/v) SDS, 100 nM okadaic acid (OA), 1 mM phenylmethylsulfonyl fluoride, and 1 mM EDTA. This is a modified version of the buffer reported by Planel et al. [Planel, 2001 #54]. The homogenates were boiled for 5 mins and then centrifuged for 15 mins at 4° C. in a Fisher micro-centrifuge model 235A. The supernatant was then diluted 1:2 in SDS-sample buffer and loaded on a 12.5% percent SDS-PAGE gel. Gels were run at 200 V, transferred onto PVDF membrane at 100 V for 1 hr. Each membrane was blocked for 1 hr in 5% milk, followed by overnight incubation in antibodies, CP13 (1:200) and PHF1 (1:500) which recognize phosphoserine 202 and phosphoserine 396/404 respectively [Greenberg, 1992 #55; Otvos, 1994 #59] and TG5 (1:1000), which recognizes a phosphorylation independent epitope on tau [Jicha, 1997 #56]. The following day, membranes were washed 5× for 5 mins each with TBS containing tween (TBST) and then incubated with goat anti-mouse IgG horseradish peroxidase coupled secondary antibody, diluted 1:25,000 in 5% milk prepared in TBS, for 1 hr. Following the secondary antibody incubation, the membranes were washed 5× for 10 mins in TBST and developed with ECL plus (Amersham). Signal intensities of X-ray film exposures for each membrane were quantified by scanning densitometry using NIH Image.
Mice were fed on diets containing or deficient in folate, vitamin B6, and vitamin B12 as described above. Tau phosphorylation was determined in the mice by SDS-PAGE and western blotting using the procedures described above. The western blots were probed using three different tau-specific monoclonal antibodies, as discussed above.
(§2) The effects of methionine enrichment were determined either in the presence or absence of a deficiency for folate, vitamin B6, and vitamin B12.
Ratios are given for values obtained from mice fed diets enriched with methionine divided by values obtained from mice fed diets not enriched for methionine.
Feeding and assays were performed as described above. Hcy, total plasma homocysteine; SAM and SAH values measured in brain homogenates. CP13 and PHF1, tau phosphorylation and TG5, total tau (see data below) body, brain, and heart weights (see data in examples above).

[3] = for Hcy, total plasma homocysteine, ratio methionine-enriched / not enriched / SAH in brain homogenates, ratio methionine-enriched / not enriched / SAM in brain homogenates, ratio methionine-enriched / not enriched: B6, B12
Text: as §1
SAM and SAH levels were measured by high performance liquid chromatography (HPLC) according to the method described by Fu et al. in “Interrelations between plasma homocysteine and intracellular S-adenosylhomocysteine;” Biochem Biophys Res Commun 271: 47-53 (2000), which is incorporated herein by reference in its entirety particularly in parts pertinent to HPLC assays of SAM and SAH.
Samples of mouse brain were weighed and homogenized in two times weight/volume of 0.5 HCIO4. Samples were centrifuged at 12,500 g for 5 min and the supernatant was filtered through a 0.22 mm membrane. Aliquots of 25 ml were injected and run on a hypersil […] particle size, c18 (ODS), 250×4.6 mm (Phenomenex) column with an isocratic elution at 1.3 ml/min. The mobile phase consisted of 0.10 mM sodium acetate, 2.4 mM heptanesulfonic acid, 4.2% acetonitrile, and 50 mM sodium perchlorate. The pH was adjusted to 3.5 with 70% perchloric acid.
Standards were run at five different concentrations: 10,000, 5,000, 2,000, 1,000, and 500 pM for SAM, and 10,000, 5,000, 1,000, 100, and 50 μM for SAH. Linear curves, obtained from the SAM and SAH standards, were used to calculate concentrations of SAM and SAH in the brain homogenates.
Homocysteine was measured by HPLC in serum samples reduced with tri-n-butylphosphine.
Serum was prepared from whole blood, which was allowed to clot for 30 min on ice and then centrifuged. Samples were aliquoted, snap frozen and stored at −80° C. for analysis. For analysis, 150 ml of serum was thawed and reduced in a mixture containing 50 ml of 0.1 M potassium borate, 2 mM EDTA, pH 9.5, 0.2 mM mercaptopropionylglycine, and 20 ml of 100 ml/I of tri-n-butylphosphine in dimethylformamide. The reduction was allowed to proceed for 30 min on ice after which samples were mixed with 125 ml of 0.6 M perchloric acid containing 1 mM EDTA and allowed to react at room temperature for 10 min, and then centrifuged at 15500 g for 10 min. 100 ml was withdrawn from the middle of the supernatant and mixed with 200 ml of 0.2M potassium borate, pH 10.5, containing 5 mM EDTA. 100 ml of 1.0 gm Ammonium 7-fluorobenzo-2-oxa-1,3-diazole-4-sulphonate/I.OL 0.2M potassium borate, pH 9.5, was added and the mixture incubated at 60° C. for 60 min. Samples were cooled and then analyzed using HPLC. 10 ml of derivatized sample was used for each injection. Buffer A (0.1 M acetate buffer, pH 4.0, containing 20 ml/I methanol) and Buffer B (0.1 M acetate buffer, pH 6.0, containing 50 ml/I methanol) were run at a flow rate of 1.0 ml/min from A to B over 12.5 min then 2.5 min of B, a 3.0 min gradient back to A and 2.0 min A before next injection. A standard was also analyzed to quantify values of homocysteine. Mercaptopropionylglycine was added to the reduction buffer as an internal standard to monitor any potential loss during reduction.
Mice were fed on diets containing or deficient in folate, vitamin B6 and B12 as set out above. SAM, SAH and Hcy were determined as described above.
as §2

[4] = excess methionine added to vitamin-deficient diets

Chain of PP2A phosphatase activity (P67775 whole entry): as above

C=C1[C@@H](O)[C@@H]2O[C@]3(CC[C@H](/C=C/[C@@H](C)[C@@H]4CC(C)=C[C@@]5(O[C@H](C[C@@](C)(O)C(=O)O)CC[C@H]5O)O4)O3)CC[C@H]2O[C@@H]1[C@@H](O)C[C@H](C)[C@H]1O[C@@]2(CCCCO2)CC[C@H]1C [Okadaic acid]
effect on tau and microtubules in cultured human neurons (cultured human neurons): tau hyperphosphorylation, reduced binding of tau to MTs, MT depolymerization, and axonal degeneration | inhibition of PP2A phosphatase activity [1]: potent inhibitor | inhibition of methylation of PP2A (methylation of PP2A): potent inhibitor

N[C@@H](CCS)C(=O)O [homocysteine]
Total PP2A (antibody 6A3) [2]: remained much the same | level of methylated PP2A (antibody 4D9) [2]: declined dramatically

CSCC[C@H](N)C(=O)O [methionine]
CP13 tau phosphorylation, ratio methionine-enriched / not enriched (tau; diets with folate): 1.1 | PHF1 tau phosphorylation, ratio methionine-enriched / not enriched (tau; diets with folate): 1.2 | TG5 total tau, ratio methionine-enriched / not enriched (tau; diets with folate): 1.2 | CP13 tau phosphorylation, ratio methionine-enriched / not enriched (tau; diets without folate): 1 | PHF1 tau phosphorylation, ratio methionine-enriched / not enriched (tau; diets without folate): 0.9 | TG5 total tau, ratio methionine-enriched / not enriched (tau; diets without folate): 1 | effect on tau hyperphosphorylation (tau; [4]): did not have a sizeable significant effect | Hcy, total plasma homocysteine, ratio methionine-enriched / not enriched ([3]; diets with folate): 1.9 | SAH in brain homogenates, ratio methionine-enriched / not enriched ([3]; diets with folate): 0.8 | SAM in brain homogenates, ratio methionine-enriched / not enriched ([3]; diets with folate): 0.9 | Hcy, total plasma homocysteine, ratio methionine-enriched / not enriched ([3]; diets without folate): 0.9 | SAH in brain homogenates, ratio methionine-enriched / not enriched ([3]; diets without folate): 1.1 | SAM in brain homogenates, ratio methionine-enriched / not enriched ([3]; diets without folate): 1.2 | change in plasma Hcy ([3]; excess methionine added to the normal diet): approximately two-fold increase | effect on methylation metabolism [3, 4]: did not have a sizeable significant effect
